From patent EP4603105A1, “PHARMACEUTICAL COMPOSITION CONTAINING CYCLIC COMPOUND HAVING SELECTIVE KRAS INHIBITORY EFFECT AGAINST HRAS AND NRAS” (CHUGAI SEIYAKU KABUSHIKI KAISHA, priority 2022, dated 2024)
Where a SMILES comes first, the peptide text is derived from it. Bridges are numbered along the chain shown (N, C = ends). [ ]: non-standard residue; d: D form. The star is where a group is joined. hPhe(3-Cl-4-CF3) = N[C@@H](CCc1ccc(C(F)(F)F)c(Cl)c1)C(=O)O; NPrPhe(4-CF3) = CCCN[C@@H](Cc1ccc(C(F)(F)F)cc1)C(=O)O; NMeGly(cPent) = CN[C@H](C(=O)O)C1CCCC1; NMeD = CN[C@@H](CC(=O)O)C(=O)O; NMeL = CN[C@@H](CC(C)C)C(=O)O; Morpholide = C1CN(*)CCO1; Ac5c = NC1(C(=O)O)CCCC1; Aze = O=C(O)[C@@H]1CCN1; Sar = CNCC(=O)O

Legend:
[1] = biological target: HRAS wild-type protein (Homo sapiens, UniProt P01112); experiment: Binding to HRAS by surface plasmon resonance (SPR), KD and KD ratio to KRAS
Outline: (§1)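 Affinity is measured by surface plasmon resonance at 30°C against captured, GDP-loaded RAS carrying a biotinylated Avi tag. Compounds are titrated by single-cycle kinetics, and KD comes from a 1:1 fit.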

[2] = biological target: GDP-bound KRAS wild-type protein (Homo sapiens, UniProt P01116); experiment: Binding to KRAS by surface plasmon resonance (SPR), dissociation constant KD; settings: 1:1 binding model
Outline: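 Running buffer contained 10 µM GDP and 10 mM MgCl2 to keep RAS in the GDP state, with 4% DMSO at pH 7.4. Compounds were flowed at 100 µL/min in 75 s steps of rising concentration over captured biotin-Avi RAS at 30°C. Sensorgrams were fitted 1:1 for KD.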

[3] = tested on: human lung cancer strain NCI-H441; type: cell-based
Outline: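 Readout: […] after the ATP-based reagent. Compound: serial dilutions in dimethyl sulfoxide.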

[4] = biological target: GDP-bound NRAS wild-type protein (Homo sapiens, UniProt P01111); experiment: Binding to NRAS by surface plasmon resonance (SPR), KD and KD ratio to KRAS
Outline: as §1

[5] = ratio of KD value for HRAS wild-type protein to KD value for KRAS (SPR)
[6] = ratio of KD value for GDP-bound NRAS wild-type protein to KD value for KRAS (SPR)
[7] = ratio of KD for HRAS wild-type protein to KD for KRAS
[8] = ratio of KD for GDP-bound NRAS wild-type protein to KD for KRAS
[9] = ratio of the KD value with respect to HRAS wild-type protein to the KD value with respect to KRAS
[10] = ratio of the KD value with respect to GDP-bound NRAS wild-type protein to the KD value with respect to KRAS

Chain of HRAS wild-type protein (P01112 whole entry): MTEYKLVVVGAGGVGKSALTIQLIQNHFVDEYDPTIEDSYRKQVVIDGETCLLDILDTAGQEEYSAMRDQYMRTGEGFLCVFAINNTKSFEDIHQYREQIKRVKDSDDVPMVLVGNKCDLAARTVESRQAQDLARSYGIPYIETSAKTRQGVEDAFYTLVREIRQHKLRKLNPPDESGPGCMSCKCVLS
Chain of GDP-bound KRAS wild-type protein (P01116 1-188 isoform P01116-2): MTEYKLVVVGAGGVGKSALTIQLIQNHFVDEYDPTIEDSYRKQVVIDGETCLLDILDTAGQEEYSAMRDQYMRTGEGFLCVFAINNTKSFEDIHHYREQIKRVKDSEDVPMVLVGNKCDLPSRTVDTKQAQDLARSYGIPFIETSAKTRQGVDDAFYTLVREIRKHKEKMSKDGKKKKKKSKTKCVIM
Chain of GDP-bound NRAS wild-type protein (P01111 whole entry): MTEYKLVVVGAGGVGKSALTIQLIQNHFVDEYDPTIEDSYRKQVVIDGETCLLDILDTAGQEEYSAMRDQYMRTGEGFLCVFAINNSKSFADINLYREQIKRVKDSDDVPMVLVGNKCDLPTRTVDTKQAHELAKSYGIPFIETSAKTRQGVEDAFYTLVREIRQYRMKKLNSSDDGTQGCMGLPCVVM

Kd ([2]; Single Cycle Kinetics)	IC50 [3]	Kd [2]	Structure (SMILES)	HRAS /KRAS [1, 5]	NRAS /KRAS [4, 6]	HRAS /KRAS [1, 7]	NRAS /KRAS [4, 8]	HRAS /KRAS [1, 9]	NRAS /KRAS [4, 10]
0.2 nM	15.9 nM	–	CCC[C@H]1C(=O)N[C@@H]([C@@H](C)CC)C(=O)N(C)CC(=O)N(C)[C@H]2C/C=C\CCN(C2=O)[C@@H](Cc2ccc(C)cc2)C(=O)N(C)CC(=O)N[C@@H](CCc2ccc(C(F)(F)F)c(Cl)c2)C(=O)N2C[C@H](C)C[C@H]2C(=O)NC2(CC(C)(C)C2)C(=O)N(C)[C@@H](C2CCCC2)C(=O)N(C)[C@H](C(=O)N(C)CC)CC(=O)N1C [PP1894]	A (a compound having 10 or more and less than 20 is denoted as A)	A (a compound having 10 or more and less than 20 is denoted as A)	–	–	–	–
–	41.8 nM	1.4 nM	CCO[C@@H]1C[C@H]2C(=O)NC3(CC(C)(C)C3)C(=O)N(C)[C@@H](C3CCCC3)C(=O)N(C)[C@H](C(=O)N(C)CC)CC(=O)N(C)[C@@H](CC(C)C)C(=O)N[C@@H]([C@@H](C)CC)C(=O)N(C)CC(=O)N(C)[C@H]3C/C=C\CCN(C3=O)[C@@H](Cc3ccc(C(F)F)cc3)C(=O)N(C)CC(=O)N[C@@H](CCc3cc(C)c(C(F)F)c(Cl)c3)C(=O)N2C1 [PP3146]	–	–	A (a compound having 10 or more and less than 20 is denoted as A)	A (a compound having 10 or more and less than 20 is denoted as A)	–	–
0.12 nM	16 nM	–	CCCN(C)C(=O)[C@@H]1CC(=O)N(C)[C@@H](C2CC2)C(=O)N[C@@H]([C@@H](C)CC)C(=O)N(C)CC(=O)N(C)[C@H]2C/C=C\CCN(C2=O)[C@@H](Cc2ccc(C(F)(F)F)cc2)C(=O)N(C)CC(=O)N[C@@H](CCc2cc(F)c(C(F)(F)F)c(F)c2)C(=O)N2C[C@H](OCC)C[C@H]2C(=O)NC2(CC(C)(C)C2)C(=O)N(C)[C@@H](C2CCCC2)C(=O)N1C [PP2037]	–	–	–	–	A (a compound having 10 or more and less than 20 is denoted as A)	A (a compound having 10 or more and less than 20 is denoted as A)
0.11 nM	10.3 nM	–	CCC[C@H]1C(=O)N[C@@H]([C@@H](C)CC)C(=O)N(C)CC(=O)N(C)[C@H]2C/C=C\CCN(C2=O)[C@@H](Cc2ccc(C)cc2)C(=O)N(C)CC(=O)N[C@@H](CCc2cc(F)c(C(F)(F)F)c(F)c2)C(=O)N2C[C@@H](C)C[C@H]2C(=O)NC2(CCC2)C(=O)N(C)[C@@H](C2CCCC2)C(=O)N(C)[C@H](C(=O)N(C)CC)CC(=O)N1C [PP1860]	A (a compound having 10 or more and less than 20 is denoted as A)	A (a compound having 10 or more and less than 20 is denoted as A)	–	–	–	–
0.098 nM	14.2 nM	–	CCCOC[C@H]1C(=O)N[C@@H]([C@@H](C)CC)C(=O)N(C)CC(=O)N(C)[C@H]2C/C=C\CCN(C2=O)[C@@H](Cc2ccc(C(F)(F)F)cc2)C(=O)N(C)CC(=O)N[C@@H](CCc2ccc(C(F)(F)F)c(OC)c2)C(=O)N2C[C@@H](C)C[C@H]2C(=O)NC2(CC(C)(C)C2)C(=O)N(C)[C@@H](C2CCCC2)C(=O)N(C)[C@H](C(=O)N(C)C)CC(=O)N1C [PP1997]	–	–	–	–	B (a compound having 3 or more and less than 10 is denoted as B)	A (a compound having 10 or more and less than 20 is denoted as A)
–	205 nM	2.1 nM	CCCN1C(=O)CN(C)C(=O)[C@@H]2CCN2C(=O)[C@H]([C@@H](C)CC)NC(=O)[C@H](CC(C)C)N(C)C(=O)C[C@@H](C(=O)N2CCOCC2)N(C)C(=O)[C@H](C2CCCC2)N(C)C(=O)C2(CCCC2)NC(=O)[C@@H]2CCN2C(=O)[C@H](CCc2ccc(C(F)(F)F)c(Cl)c2)NC(=O)CN(C)C(=O)[C@@H]1Cc1ccc(C(F)(F)F)cc1 [PP0307] ([NMeL]I[Aze][Sar][NPrPhe(4-CF3)][Sar][hPhe(3-Cl-4-CF3)][Aze][Ac5c][NMeGly(cPent)][NMeD]-Morpholide; lactam N-11)	–	–	B (a compound having 3 or more and less than 10 is denoted as B)	B (a compound having 3 or more and less than 10 is denoted as B)	–	–
